Reference: patent US20080131920A1, “Ion flux in biological processes, and methods related thereto” (priority 2005, published 2008)

Experiments:
[1] = system: H+ flux from living early blastomeres; experiment: Self-referencing ion-selective (Seris) probe measurement of H+ flux; design: species or system Xenopus laevis; settings: in vivo
Source text: We examined ion flux using a self-referencing ion probe to measure H^+ flux from living early blastomeres. The H^+-V-ATPase endogenously acts to pump protons out of the cell (e.g., it mediates proton efflux). We note, however, that other ion transporters modulate influx of ions. The term ion flux refers to movement of ions across membranes, regardless of the direction. The techniques provided herein can be used to evaluate changes in either ion efflux or influx, and thus can generally be used to evaluate ion flux and changes in ion flux following manipulation of an ion transporter protein or a class of ion transporter proteins.
To confirm that the asymmetric efflux was due to asymmetric H^+-V-ATPase function, we compared H^+ efflux in control embryos to efflux from embryos treated with a variety of ion flux inhibitors.
The self-referencing ion-selective (Seris) probe consists of an ion selective microelectrode that is translated between two points in the extracellular space near the plasma membrane of a cell. If a net flux of ion into or out of the cell is detected, the resultant concentration gradient will be detected as a voltage difference from which the ion flux through the membrane can be calculated. […]. […]

[2] = system: axons of the tail; experiment: Axonal patterning in regenerating tails (acetylated α-tubulin immunohistochemistry); design: species or system Xenopus laevis; settings: in vivo
Source text: Finally, to characterize downstream morphogenetic consequences of V-ATPase abrogation, we traced axonal paths during regeneration using immunohistochemistry with an acetylated α-tubulin antibody. In normally regenerating tails, axons appear increased in number (relative to the uncut portion of tail) and they extend into the bud in bundles parallel to the main anterior-posterior axis of the tail (FIG. 14H; green arrows indicate normal axon patterning, while black arrows indicate abnormal axon number and/or location). […] Moreover, in normal refractory tails, there is no apparent increase in the number of axons, and those that are present terminate well anterior of the tail tip (FIG. 14K). […]
Axon and muscle marker detection was performed using fluorescent secondary antibodies. […] Fluorescence images were collected on a Leica TCS SPZ confocal imaging system; λex=543. […] Background autofluorescence was removed by segmentation of the original fluorescence images. The brightest pixels could readily be selected such that the selection best represented the pattern of axons. […]

[3] = system: Xenopus embryos; format: in vivo; settings: treated from fertilization to stage 7; organs scored at stage 45
[4] = system: primitive streak cells; experiment: Cellular pH imaging of early chick blastoderm with SNARF-1-AM; format: in vivo
[5] = system: KCNK1; experiment: KCNK1 expression in the regeneration bud; design: species or system Xenopus laevis; settings: in vivo
Source text: We then sought to functionally link V-ATPase activity to gene expression in the regeneration bud. Existing markers include Notch pathway genes^2. […] Because of this, and because the V-ATPase is expressed so soon following amputation, we utilized an earlier marker that is normally expressed by 12 hpa: the K^+ channel KCNK1 (FIG. 14E,E′). In larvae in which V-ATPase activity was abrogated by concanamycin or a function-blocking anti-V-ATPase antibody, KCNK1 expression was absent (N=13, FIG. 14F,F′-G,G′). Thus, V-ATPase is upstream of some gene expression in the regeneration bud, including other ion transporters also specifically expressed during early stages of regeneration.
Larvae were fixed in MEMFA (Sive et al., 2000) and dehydrated in methanol. In situ hybridization was carried out according to standard protocols (Harland, 1991, Xenopus laevis: Practical uses in cell and molecular biology 36: 685-695). The ion transporter constructs used to generate probes for in situ hybridization (ISH) experiments were: Kcnk1 (TWIK-1, BC042262, Open Biosystems), V-ATPase 16 kDa subunit (BE025959, RZPD). Plasmids were used to generate anti-sense riboprobes by in vitro transcription. […] Expression indicated represents consistent consensus patterns obtained from analysis of at least 15 larvae in all experiments. […]

Structure (SMILES): C/C=C/[C@H]1O[C@@](O)([C@@H](C)[C@H](O)[C@H](C)[C@H]2OC(=O)/C(OC)=C/C(C)=C/[C@@H](C)[C@@H](O)[C@@H](CC)[C@@H](O)[C@H](C)C/C(C)=C/C=C/[C@@H]2OC)C[C@@H](O)[C@@H]1C [concanamycin]
- left/right asymmetry in the proton fluxes [1]: eliminated
- proton efflux on the right side [1]: about half of its original value
- axon patterning in V-ATPase-inhibited tails [2]: axon patterning is abnormal
- heterotaxia, % of the embryos [3]: 35%
- pH of cells in the primitive streak [4]: lowered the pH
- KCNK1 expression in the regeneration bud [5]: absent
